ChEMBL document CHEMBL3044964, “Synthesis of novel imidazo[2,1-b][1,3,4]thiadiazoles appended to sydnone as anticancer agents” (Med Chem Res, 2013)
Values after ≈ are worked out from the molar mass of the structure shown. Active and inactive are the calls of the source. No cut-off for these calls is given here.

Tested on: HT-29
Assay: Cytotoxicity against Homo sapiens (human) HT-29 cells by SRB assay
Assay type: functional
Conditions: not given

| SMILES | GI50 [µg/mL] | LC50 [µg/mL] | TGI [µg/mL] |
| --- | --- | --- | --- |
| O=c1oc2ccc(Cl)cc2cc1-c1cn2nc(-c3c([O-])[o+]nn3-c3ccccc3)sc2n1 | 7.7 (≈ 16.6 µM) | > 80 | > 40 |
| Cc1ccc(-n2n[o+]c([O-])c2-c2nn3cc(-c4cc5ccccc5oc4=O)nc3s2)cc1 | 4.23 (≈ 9.54 µM) | > 80 | < 30 |
| COc1ccc(-n2n[o+]c([O-])c2-c2nn3cc(-c4cc5cc(Cl)ccc5oc4=O)nc3s2)cc1 | 3.68 (≈ 7.45 µM) | > 70 | < 30 |
| Cc1ccc(-n2n[o+]c([O-])c2-c2nn3cc(-c4cc5cc(Br)ccc5oc4=O)nc3s2)cc1 | 6.1 (≈ 11.7 µM) | > 70 | > 30 |
| O=c1oc2ccc(Br)cc2cc1-c1cn2nc(-c3c([O-])[o+]nn3-c3ccc(Cl)cc3)sc2n1 | 5.25 (≈ 9.67 µM) | > 70 | > 40 |
| O=c1oc2ccc(Cl)cc2cc1-c1cn2nc(-c3c([O-])[o+]nn3-c3ccc(Cl)cc3)sc2n1 | 8 (≈ 16.1 µM) | > 80 | > 40 |

Tested on: Escherichia coli
Assay: Toxicity in wild type Escherichia coli AB1157 assessed as growth inhibition at 250 ug after 24 hr by agar well diffusion method
Assay type: organism-based
Conditions: in vivo

| SMILES | diameter of the inhibition zone (DIZ) [cm] |
| --- | --- |
| O=c1oc2ccc(Cl)cc2cc1-c1cn2nc(-c3c([O-])[o+]nn3-c3ccccc3)sc2n1 | 0 |
| Cc1ccc(-n2n[o+]c([O-])c2-c2nn3cc(-c4cc5ccccc5oc4=O)nc3s2)cc1 | 0 |
| COc1ccc(-n2n[o+]c([O-])c2-c2nn3cc(-c4cc5cc(Cl)ccc5oc4=O)nc3s2)cc1 | 0 |
| Cc1ccc(-n2n[o+]c([O-])c2-c2nn3cc(-c4cc5cc(Br)ccc5oc4=O)nc3s2)cc1 | 0 |
| O=c1oc2ccc(Br)cc2cc1-c1cn2nc(-c3c([O-])[o+]nn3-c3ccc(Cl)cc3)sc2n1 | 0 |
| O=c1oc2ccc(Cl)cc2cc1-c1cn2nc(-c3c([O-])[o+]nn3-c3ccc(Cl)cc3)sc2n1 | 0 |

Tested on: Escherichia coli
Assay: Induction of Escherichia coli DNA cleavage at 25 mg after 2 hr by agarose gel electrophoresis
Conditions: not given

| SMILES | Activity |
| --- | --- |
| O=c1oc2ccc(Cl)cc2cc1-c1cn2nc(-c3c([O-])[o+]nn3-c3ccc(Cl)cc3)sc2n1 | Active |

Tested on: Escherichia coli
Assay: Toxicity in wild type Escherichia coli AB1157 assessed as growth inhibition at 2000 ug after 24 hr by agar well diffusion method
Assay type: organism-based
Conditions: in vivo

| SMILES | diameter of the inhibition zone (DIZ) [cm] |
| --- | --- |
| O=c1oc2ccc(Cl)cc2cc1-c1cn2nc(-c3c([O-])[o+]nn3-c3ccccc3)sc2n1 | 0 |
| Cc1ccc(-n2n[o+]c([O-])c2-c2nn3cc(-c4cc5ccccc5oc4=O)nc3s2)cc1 | 0 |
| COc1ccc(-n2n[o+]c([O-])c2-c2nn3cc(-c4cc5cc(Cl)ccc5oc4=O)nc3s2)cc1 | 0.8 |
| Cc1ccc(-n2n[o+]c([O-])c2-c2nn3cc(-c4cc5cc(Br)ccc5oc4=O)nc3s2)cc1 | 0 |
| O=c1oc2ccc(Br)cc2cc1-c1cn2nc(-c3c([O-])[o+]nn3-c3ccc(Cl)cc3)sc2n1 | 0 |
| O=c1oc2ccc(Cl)cc2cc1-c1cn2nc(-c3c([O-])[o+]nn3-c3ccc(Cl)cc3)sc2n1 | 0 |

Tested on: Escherichia coli
Assay: Toxicity in wild type Escherichia coli AB1157 assessed as growth inhibition at 1000 ug after 24 hr by agar well diffusion method
Assay type: organism-based
Conditions: in vivo

| SMILES | diameter of the inhibition zone (DIZ) [cm] |
| --- | --- |
| O=c1oc2ccc(Cl)cc2cc1-c1cn2nc(-c3c([O-])[o+]nn3-c3ccccc3)sc2n1 | 0 |
| Cc1ccc(-n2n[o+]c([O-])c2-c2nn3cc(-c4cc5ccccc5oc4=O)nc3s2)cc1 | 0 |
| COc1ccc(-n2n[o+]c([O-])c2-c2nn3cc(-c4cc5cc(Cl)ccc5oc4=O)nc3s2)cc1 | 0.5 |
| Cc1ccc(-n2n[o+]c([O-])c2-c2nn3cc(-c4cc5cc(Br)ccc5oc4=O)nc3s2)cc1 | 0 |
| O=c1oc2ccc(Br)cc2cc1-c1cn2nc(-c3c([O-])[o+]nn3-c3ccc(Cl)cc3)sc2n1 | 0 |
| O=c1oc2ccc(Cl)cc2cc1-c1cn2nc(-c3c([O-])[o+]nn3-c3ccc(Cl)cc3)sc2n1 | 0 |

Tested on: Escherichia coli
Assay: Toxicity in wild type Escherichia coli AB1157 assessed as growth inhibition at 125 ug after 24 hr by agar well diffusion method
Assay type: organism-based
Conditions: in vivo

| SMILES | growth inhibition (GI) |
| --- | --- |
| O=c1oc2ccc(Cl)cc2cc1-c1cn2nc(-c3c([O-])[o+]nn3-c3ccccc3)sc2n1 | Non-toxic |
| Cc1ccc(-n2n[o+]c([O-])c2-c2nn3cc(-c4cc5ccccc5oc4=O)nc3s2)cc1 | Non-toxic |
| COc1ccc(-n2n[o+]c([O-])c2-c2nn3cc(-c4cc5cc(Cl)ccc5oc4=O)nc3s2)cc1 | Non-toxic |
| Cc1ccc(-n2n[o+]c([O-])c2-c2nn3cc(-c4cc5cc(Br)ccc5oc4=O)nc3s2)cc1 | Non-toxic |
| O=c1oc2ccc(Br)cc2cc1-c1cn2nc(-c3c([O-])[o+]nn3-c3ccc(Cl)cc3)sc2n1 | Non-toxic |
| O=c1oc2ccc(Cl)cc2cc1-c1cn2nc(-c3c([O-])[o+]nn3-c3ccc(Cl)cc3)sc2n1 | Non-toxic |

Tested on: Escherichia coli
Assay: Toxicity in wild type Escherichia coli AB1157 assessed as growth inhibition at 500 ug after 24 hr by agar well diffusion method
Assay type: organism-based
Conditions: in vivo

| SMILES | diameter of the inhibition zone (DIZ) [cm] |
| --- | --- |
| O=c1oc2ccc(Cl)cc2cc1-c1cn2nc(-c3c([O-])[o+]nn3-c3ccccc3)sc2n1 | 0 |
| Cc1ccc(-n2n[o+]c([O-])c2-c2nn3cc(-c4cc5ccccc5oc4=O)nc3s2)cc1 | 0 |
| COc1ccc(-n2n[o+]c([O-])c2-c2nn3cc(-c4cc5cc(Cl)ccc5oc4=O)nc3s2)cc1 | 0 |
| Cc1ccc(-n2n[o+]c([O-])c2-c2nn3cc(-c4cc5cc(Br)ccc5oc4=O)nc3s2)cc1 | 0 |
| O=c1oc2ccc(Br)cc2cc1-c1cn2nc(-c3c([O-])[o+]nn3-c3ccc(Cl)cc3)sc2n1 | 0 |
| O=c1oc2ccc(Cl)cc2cc1-c1cn2nc(-c3c([O-])[o+]nn3-c3ccc(Cl)cc3)sc2n1 | 0 |

Tested on: Escherichia coli
Assay: Toxicity in wild type Escherichia coli AB1157 assessed as growth inhibition after 24 hr by agar well diffusion method
Assay type: organism-based
Conditions: in vivo

| SMILES | MIC [mg] |
| --- | --- |
| O=c1oc2ccc(Cl)cc2cc1-c1cn2nc(-c3c([O-])[o+]nn3-c3ccccc3)sc2n1 | > 2 |
| Cc1ccc(-n2n[o+]c([O-])c2-c2nn3cc(-c4cc5ccccc5oc4=O)nc3s2)cc1 | > 2 |
| COc1ccc(-n2n[o+]c([O-])c2-c2nn3cc(-c4cc5cc(Cl)ccc5oc4=O)nc3s2)cc1 | 1 |
| Cc1ccc(-n2n[o+]c([O-])c2-c2nn3cc(-c4cc5cc(Br)ccc5oc4=O)nc3s2)cc1 | > 2 |
| O=c1oc2ccc(Br)cc2cc1-c1cn2nc(-c3c([O-])[o+]nn3-c3ccc(Cl)cc3)sc2n1 | > 2 |
| O=c1oc2ccc(Cl)cc2cc1-c1cn2nc(-c3c([O-])[o+]nn3-c3ccc(Cl)cc3)sc2n1 | > 2 |
